According to patent publication US9260467B2, “Sialic acid dimers” (priority 2011, dated 2016):

Each compound was assayed against T1, Siglec-2 (CD22) (Homo sapiens, UniProt P20273) (assay: new affinity assay: displacement of biotinylated compound 155 from sialidase-treated Daudi cells, FACS with streptavidin-PE). Conditions: Table II; rIP values set relative to compound 38; Daudi cells, displacement of compound 155.
T1 sequence (P20273 20-847): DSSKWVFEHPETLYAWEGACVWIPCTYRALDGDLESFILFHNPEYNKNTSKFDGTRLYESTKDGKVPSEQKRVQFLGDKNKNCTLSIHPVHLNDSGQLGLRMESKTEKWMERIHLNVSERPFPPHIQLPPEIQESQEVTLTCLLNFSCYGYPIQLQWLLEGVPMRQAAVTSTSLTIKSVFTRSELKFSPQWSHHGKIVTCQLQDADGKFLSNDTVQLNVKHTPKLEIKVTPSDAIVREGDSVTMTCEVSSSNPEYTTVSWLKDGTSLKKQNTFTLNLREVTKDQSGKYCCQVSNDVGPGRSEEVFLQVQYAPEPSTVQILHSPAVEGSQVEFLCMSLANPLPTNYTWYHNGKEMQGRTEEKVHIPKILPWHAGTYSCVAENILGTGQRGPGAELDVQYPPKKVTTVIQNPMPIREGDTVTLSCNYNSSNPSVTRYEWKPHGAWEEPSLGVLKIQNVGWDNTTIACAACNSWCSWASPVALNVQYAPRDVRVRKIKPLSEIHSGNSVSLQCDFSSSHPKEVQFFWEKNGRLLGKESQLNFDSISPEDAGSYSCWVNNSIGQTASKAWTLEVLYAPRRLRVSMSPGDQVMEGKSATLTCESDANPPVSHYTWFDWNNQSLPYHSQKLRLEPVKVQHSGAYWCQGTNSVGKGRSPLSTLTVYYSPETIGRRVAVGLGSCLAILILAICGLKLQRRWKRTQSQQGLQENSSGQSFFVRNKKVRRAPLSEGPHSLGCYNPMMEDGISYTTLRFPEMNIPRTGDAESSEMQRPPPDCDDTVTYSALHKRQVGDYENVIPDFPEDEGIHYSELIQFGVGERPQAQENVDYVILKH
Format: binding
Design: endogenous in cells; host or cells: Daudi (human B-cell lymphoma line)
Experimental: To determine the affinity of the compound of the formula (I), approximately 5×10^6 to 2×10^8 cells of the human B-cell lymphoma line “Daudi” were incubated with sialidase (A. ureafaciens) at 37° C. for 1 h (final concentration 0.1 unit/ml). […] Batches of 1-2×10^6 cells were transferred to sample vessels, and incubated on ice for 15 min with serial concentrations (10-fold dilutions, 1 mM to 1×10^−7 mM) of the substance under measurement (inhibitor). The reaction volume was 50 μl. Then 50 microliters of compound 155 (4-micromolar) were added, and incubation took place for 20 min Washing with FACS buffer (PBS, 0.1 BSA, 0.01% sodium azide) was followed by incubation with streptavidin-PE in the dark for 15 min, followed by washing and measurement of the bound amount of […] via the streptavidin-PE in the FACS. For the determination of 0% displacement of the compound 155, cells without inhibitor were measured. For the determination of 100% displacement, cells were measured without compound 155 and without inhibitor. For each assay, four substances and one reference were measured. The IC50 values determined in each assay were subsequently converted into values of rIP (relative Inhibitory Potency). […]

**Q.** With `CC(=O)N[C@H]1[C@H]([C@H](O)[C@H](O)CNC(=O)c2ccc(-c3ccccc3)cc2)O[C@@](OCCCSCCNCc2ccc(CNCCSCCCO[C@]3(C(=O)[O-])C[C@H](O)[C@@H](NC(C)=O)[C@H]([C@H](O)[C@H](O)CNC(=O)c4ccc(-c5ccccc5)cc4)O3)cc2)(C(=O)[O-])C[C@@H]1O.[Na+].[Na+]` [Compound 52] as the compound, how does the rIP read?
**A.** 31

**Q.** For `CC(=O)N[C@H]1[C@H]([C@H](O)[C@H](O)CNC(=O)c2ccc(-c3cccs3)cc2)O[C@@](OCCCSCCNC(=O)c2ccc(C(=O)NCCSCCCO[C@]3(C(=O)[O-])C[C@H](O)[C@@H](NC(C)=O)[C@H]([C@H](O)[C@H](O)CNC(=O)c4ccc(-c5cccs5)cc4)O3)cc2)(C(=O)[O-])C[C@@H]1O.[Na+].[Na+]` [Compound 80], which rIP is on record?
**A.** 14342

**Q.** How did the rIP turn out when `CC(=O)N[C@H]1[C@H]([C@H](O)[C@H](O)CNCc2ccc(-c3ccccc3)cc2)O[C@@](OCCCSCCNC(=O)c2ccc(C(=O)NCCSCCCO[C@]3(C(=O)[O-])C[C@H](O)[C@@H](NC(C)=O)[C@H]([C@H](O)[C@H](O)CNCc4ccc(-c5ccccc5)cc4)O3)cc2)(C(=O)[O-])C[C@@H]1O.[Na+].[Na+]` [Compound 85] was run?
**A.** 1

**Q.** `CC(=O)N[C@H]1[C@H]([C@H](O)[C@H](O)Cn2cc(-c3ccccc3)nn2)O[C@@](OCCCSCCNC(=O)c2ccc(C(=O)NCCSCCCO[C@]3(C(=O)[O-])C[C@H](O)[C@@H](NC(C)=O)[C@H]([C@H](O)[C@H](O)Cn4cc(-c5ccccc5)nn4)O3)cc2)(C(=O)[O-])C[C@@H]1O.[Na+].[Na+]` [Compound 95] was tested. Which rIP did it give?
**A.** 6

**Q.** How did the rIP turn out when `CC(=O)N[C@H]1[C@H]([C@H](O)[C@H](O)CNC(=O)c2ccc(-c3ccccc3)s2)O[C@@](OCCCSCCNC(=O)c2ccc(C(=O)NCCSCCCO[C@]3(C(=O)[O-])C[C@H](O)[C@@H](NC(C)=O)[C@H]([C@H](O)[C@H](O)CNC(=O)c4ccc(-c5ccccc5)s4)O3)cc2)(C(=O)[O-])C[C@@H]1O.[Na+].[Na+]` [Compound 65] was run?
**A.** 106

**Q.** With `CC(=O)N[C@H]1[C@H]([C@H](O)[C@H](O)CNC(=O)c2ccc(-c3ccccc3)cc2)O[C@@](OCCCSCCC(=O)NCCCCCCNC(=O)CCSCCCO[C@]2(C(=O)[O-])C[C@H](O)[C@@H](NC(C)=O)[C@H]([C@H](O)[C@H](O)CNC(=O)c3ccc(-c4ccccc4)cc3)O2)(C(=O)[O-])C[C@@H]1O.[Na+].[Na+]` [Compound 43] as the compound, how does the rIP read?
**A.** 15

**Q.** Which rIP does the source give for `COc1ccccc1-c1ccc(C(=O)NC[C@@H](O)[C@@H](O)[C@@H]2O[C@@](OCCCSCCNC(=O)c3ccc(C(=O)NCCSCCCO[C@]4(C(=O)[O-])C[C@H](O)[C@@H](NC(C)=O)[C@H]([C@H](O)[C@H](O)CNC(=O)c5ccc(-c6ccccc6OC)cc5)O4)cc3)(C(=O)[O-])C[C@H](O)[C@H]2NC(C)=O)cc1.[Na+].[Na+]` [Compound 74] here?
**A.** 27

**Q.** `CC(=O)N[C@H]1[C@H]([C@H](O)[C@H](O)CNC(=O)Cc2ccc(-c3ccccc3)cc2)O[C@@](OCCCSCCNC(=O)c2ccc(C(=O)NCCSCCCO[C@]3(C(=O)[O-])C[C@H](O)[C@@H](NC(C)=O)[C@H]([C@H](O)[C@H](O)CNC(=O)Cc4ccc(-c5ccccc5)cc4)O3)cc2)(C(=O)[O-])C[C@@H]1O.[Na+].[Na+]` [Compound 79] was tested. Which rIP did it give?
**A.** 181

**Q.** With `CC(=O)N[C@H]1[C@H]([C@H](O)[C@H](O)CNC(=O)c2ccc(-c3ccsc3)cc2)O[C@@](OCCCSCCNC(=O)c2ccc(C(=O)NCCSCCCO[C@]3(C(=O)[O-])C[C@H](O)[C@@H](NC(C)=O)[C@H]([C@H](O)[C@H](O)CNC(=O)c4ccc(-c5ccsc5)cc4)O3)cc2)(C(=O)[O-])C[C@@H]1O.[Na+].[Na+]` [Compound 81] as the compound, how does the rIP read?
**A.** 2068

**Q.** Which rIP does the source give for `CC(=O)N[C@H]1[C@H]([C@H](O)[C@H](O)CNC(=O)c2ccc(-c3ccccc3)cc2)O[C@@](OCCCSCCNC(=O)c2ccc(C(=O)NCCSCCCO[C@]3(C(=O)[O-])C[C@H](OC(=O)c4ccccc4)[C@@H](NC(C)=O)[C@H]([C@H](O)[C@H](O)CNC(=O)c4ccc(-c5ccccc5)cc4)O3)cc2)(C(=O)[O-])C[C@@H]1OC(=O)c1ccccc1.[Na+].[Na+]` [Compound 113] here?
**A.** 3522

**Q.** For `CC(=O)N[C@H]1[C@H]([C@H](O)[C@H](O)CNC(=O)c2ccc(-c3cccs3)s2)O[C@@](OCCCSCCNC(=O)c2ccc(C(=O)NCCSCCCO[C@]3(C(=O)[O-])C[C@H](O)[C@@H](NC(C)=O)[C@H]([C@H](O)[C@H](O)CNC(=O)c4ccc(-c5cccs5)s4)O3)cc2)(C(=O)[O-])C[C@@H]1O.[Na+].[Na+]` [Compound 62], which rIP is on record?
**A.** 203

**Q.** For `CC(=O)N[C@H]1[C@H]([C@H](O)[C@H](O)CNC(=O)c2ccc(-c3ccccc3)cc2)O[C@@](OCC(=O)NCCCC(=O)Nc2ccc(NC(=O)CCCNC(=O)CO[C@]3(C(=O)[O-])C[C@H](O)[C@@H](NC(C)=O)[C@H]([C@H](O)[C@H](O)CNC(=O)c4ccc(-c5ccccc5)cc4)O3)cc2)(C(=O)[O-])C[C@@H]1O.[Na+].[Na+]` [Compound 90], which rIP is on record?
**A.** 1445

**Q.** How did the rIP turn out when `CC(=O)N[C@H]1[C@H]([C@H](O)[C@H](O)CNC(=O)c2ccc(-c3ccccc3)cc2)O[C@@](OCCCSCCNC(=O)c2ccc(C(=O)NCCSCCCO[C@]3(C(=O)[O-])C[C@H](O)[C@@H](NC(C)=O)[C@H]([C@H](O)[C@H](O)CNC(=O)c4ccc(-c5ccccc5)cc4)O3)s2)(C(=O)[O-])C[C@@H]1O.[Na+].[Na+]` [Compound 29] was run?
**A.** 2061

**Q.** For `CC(=O)N[C@H]1[C@H]([C@H](O)[C@H](O)CNC(=O)c2ccc(-c3ccccc3)cc2)O[C@@](OCCCSCCC(=O)Nc2ccc(NC(=O)CCSCCCO[C@]3(C(=O)[O-])C[C@H](O)[C@@H](NC(C)=O)[C@H]([C@H](O)[C@H](O)CNC(=O)c4ccc(-c5ccccc5)cc4)O3)cc2)(C(=O)[O-])C[C@@H]1O.[Na+].[Na+]` [Compound 39], which rIP is on record?
**A.** 10760

**Q.** Which rIP does the source give for `CC(=O)N[C@H]1[C@H]([C@H](O)[C@H](O)CNC(=O)c2ccc(-c3ccccc3)cc2)O[C@@](OCCCSCCC(=O)Nc2ccccc2NC(=O)CCSCCCO[C@]2(C(=O)[O-])C[C@H](O)[C@@H](NC(C)=O)[C@H]([C@H](O)[C@H](O)CNC(=O)c3ccc(-c4ccccc4)cc3)O2)(C(=O)[O-])C[C@@H]1O.[Na+].[Na+]` [Compound 42] here?
**A.** 359

**Q.** With `CC(=O)N[C@H]1[C@H]([C@H](O)[C@H](O)CNC(=O)/C=C/c2ccccc2)O[C@@](OCCCSCCNC(=O)c2ccc(C(=O)NCCSCCCO[C@]3(C(=O)[O-])C[C@H](O)[C@@H](NC(C)=O)[C@H]([C@H](O)[C@H](O)CNC(=O)/C=C/c4ccccc4)O3)cc2)(C(=O)[O-])C[C@@H]1O.[Na+].[Na+]` [Compound 83] as the compound, how does the rIP read?
**A.** 73

**Q.** `CC(=O)N[C@H]1[C@H]([C@H](O)[C@H](O)CNC(=O)Cc2ccc3ccccc3c2)O[C@@](OCCCSCCNC(=O)c2ccc(-c3ccc(C(=O)NCCSCCCO[C@]4(C(=O)[O-])C[C@H](O)[C@@H](NC(C)=O)[C@H]([C@H](O)[C@H](O)CNC(=O)Cc5ccc6ccccc6c5)O4)cc3)cc2)(C(=O)[O-])C[C@@H]1O.[Na+].[Na+]` [Compound 127] was tested. Which rIP did it give?
**A.** 74

**Q.** `CC(=O)N[C@H]1[C@H]([C@H](O)[C@H](O)CNC(=O)c2ccc(-c3ccccc3)cc2)O[C@@](OCCCSCCNC(=O)c2ccc(C(=O)NCCSCCCO[C@]3(C(=O)[O-])C[C@H](O)[C@@H](NC(C)=O)[C@H]([C@H](O)[C@H](O)CNC(=O)c4ccc(C5CCCCC5)cc4)O3)cc2)(C(=O)[O-])C[C@@H]1O.[Na+].[Na+]` [Compound 103] was tested. Which rIP did it give?
**A.** 185

**Q.** How did the rIP turn out when `CC(=O)N[C@H]1[C@H]([C@H](O)[C@H](O)CNC(=O)c2ccc(-c3ccccc3)cc2)O[C@@](OCCCSCC(NC(=O)c2ccc(C(=O)NC(CSCCCO[C@]3(C(=O)[O-])C[C@H](O)[C@@H](NC(C)=O)[C@H]([C@H](O)[C@H](O)CNC(=O)c4ccc(-c5ccccc5)cc4)O3)C(=O)[O-])cc2)C(=O)[O-])(C(=O)[O-])C[C@@H]1O.[Na+].[Na+].[Na+].[Na+]` (some centres unmarked) [Compound 149] was run?
**A.** 378

**Q.** Which rIP does the source give for `CC(=O)N[C@H]1[C@H]([C@H](O)[C@H](O)CNC(=O)c2ccc(-c3ccccc3Cl)cc2)O[C@@](OCCCSCCNC(=O)c2ccc(C(=O)NCCSCCCO[C@]3(C(=O)[O-])C[C@H](O)[C@@H](NC(C)=O)[C@H]([C@H](O)[C@H](O)CNC(=O)c4ccc(-c5ccccc5Cl)cc4)O3)cc2)(C(=O)[O-])C[C@@H]1O.[Na+].[Na+]` [Compound 75] here?
**A.** 3210
